Laboratory results as given in patent US12576070B2, “Medicine for improving state of pregnancy, and use thereof” (priority 2014, dated 2026).

Assays:
[1] = system: patient with a past history of both eclampsia and HELLP syndrome; assay: Tacrolimus monotherapy in a patient with past history of eclampsia and HELLP syndrome (Example 4); format: in vivo, human; conditions: for ALT (U/L) / AST (U/L) / Cr / Hb / LDH (U/L) / Plt (10^4/uL) / WBC: blood examination, with tacrolimus treatment
From the text: The patient was a person (y.o.) […] with a past history of both eclampsia and HELLP syndrome. During the first pregnancy when the patient was […], they complained of physical deconditioning from early in their pregnancy. […] Sudden aggravation of the edema, proteinuria and hypertension appeared at 18 weeks gestation, at which time they were diagnosed with preeclampsia. HELLP syndrome and eclampsia occurred at 20 weeks gestation and a stillbirth required an emergency cesarean section. After delivery of the baby, they had severe complications such as pulmonary edema, disseminated intravascular coagulation, and intraperitoneal bleeding. They were medicated via an artificial respirator, and received albumin and a blood transfusion (Table 6). […] Laboratory findings related to infertility such as antiphospholipid syndrome (anti-CL IgG Ab, anti-CL IgM Ab, anti-β2GP-1 Ab, anti-PS/PT Ab, anti-PE IgG Ab, anti-PE IgM Ab), autoimmune disease (ANA and anti-DNA Ab), and disorders of blood coagulation (protein S activity, protein C activity, factor XII activity) were all negative. Although no obvious immunological abnormalities of the Th1(CD4^+IFN-γ+)/Th2 (CD4+IL-4^+) cell ratio (15.2/2.1) in CD4 positive cells (normal range, <10.3) were observed before pregnancy^46, it was assumed that maternal immunity would be activated by the embedding of a fertilized ovum (recognition of fetal antigens) and the abnormalities of maternal-fetal immunity may have inhibited placenta construction and caused fetal growth retardation and hypertension. The patient was treated with 1 mg/day of tacrolimus to control the maternal-fetal immunity. This patient received a monotherapy of tacrolimus without a concomitant treatment of a low dose of aspirin, which is often used as an anti-platelet agent for HDP^47. The course of the pregnancy was stable until the 3rd trimester, and no significant symptoms were observed during the 2nd trimester, at which point HELLP syndrome occurred in their previous pregnancy. Clinical signs of HELLP syndrome rapidly appeared, however, at 33 weeks gestation. A decrease in the Th1 and Th2 cell populations in CD4 positive cells and a reduction in the activity of NK cells over time post-partum were observed, which confirms that the tacrolimus regimen exerted sufficient suppressive effect on those cells, whereas the activity of NK cells was elevated at 32 weeks gestation. A possibility was speculated that NK cell activity was stimulated when a large number of fetal antigens were transferred to the maternal blood circulation after the suppression of the NK cells by the 1 mg/day dose of tacrolimus became insufficient in the 3rd trimester. […] Th1 and Th2 cell populations in CD4 positive cells and the NK cell activity were measured to evaluate the patient's pathological condition. One of the parameters, NK cell activity, indicated an appearance of abnormal maternal-fetal immunity. Other parameters that can be used to evaluate the failure of maternal tolerance for a fetus and activation of maternal immune rejection against a fetus with inflammation include Treg cells, Th17 cells, cytokines, and chemokines^37-44.

[2] = system: kidney transplant recipients with tacrolimus exposure during pregnancy; conditions: cited from earlier work
[3] = Current pregnancy with tacrolimus treatment 1 mg/day
[4] = Current pregnancy with tacrolimus treatment 1 mg/day, after delivery
[5] = Current pregnancy with tacrolimus treatment 1 mg/day, before delivery
[6] = 236 babies born from kidney transplant recipients with tacrolimus exposure during pregnancy
[7] = kidney transplant recipients with tacrolimus exposure during pregnancy

With `C=CCC1/C=C(\C)CC(C)CC(OC)C2OC(O)(C(=O)C(=O)N3CCCCC3C(=O)OC(/C(C)=C/C3CCC(O)C(OC)C3)C(C)C(O)CC1=O)C(C)CC2OC` (stereo not drawn) [tacrolimus, 17-Allyl-1,14-dihydroxy-12-[2-(4-hydroxy-3-methoxycyclohexyl)-1-methylvinyl]-23,2 5-dimethoxy-13,19,21,27-tetramethyl-11,28-dioxa-4-azatricyclo[22.3.1.04,9]octacos-18-ene-2,3,10,16-tetraone] the “Fetal information: fetal growth” value [1, 3] was −1.9 SD, the “start of proteinuria (weeks gstation)” value [1, 3] was 33 weeks gstation and the “Symptoms: edema” value [1, 4] was “slight”. For the same compound, the “Symptoms: hypertension” value [1, 4] was “transient”, the complications after deliverly [1, 4] was “none” and the “Symptoms: edema” value [1, 5] was “slight”. For the same compound, the “Symptoms: hypertension” value [1, 5] was “not observed”, the “ALT (U/L)” value ([1]; after delivery) was 833 U/L and the “AST (U/L)” value ([1]; after delivery) was 898 U/L. For the same compound, the “Cr” value ([1]; after delivery) was 0.59 mg/dL, the “Hb” value ([1]; after delivery) was 10.5 g/dL and the “LDH (U/L)” value ([1]; after delivery) was 1995 U/L. The “Plt (10^4/uL)” value ([1]; after delivery) was 2.2 10^4/uL, the WBC ([1]; after delivery) was 8220 cells/µL and the “ALT (U/L)” value ([1]; before delivery) was 71 U/L. The “AST (U/L)” value ([1]; before delivery) was 65 U/L, the “Cr” value ([1]; before delivery) was 1 mg/dL and the “Hb” value ([1]; before delivery) was 11 g/dL. The “LDH (U/L)” value ([1]; before delivery) was 316 U/L, the “Plt (10^4/uL)” value ([1]; before delivery) was 10 10^4/uL and the WBC ([1]; before delivery) was 8280 cells/µL. The “Th1 and Th2 cell populations in CD4 positive cells” value ([1]; during pregnancy, with time, tacrolimus 1 mg/day (FIG. 1)) was “decrease”, the NK cell activity ([1]; during pregnancy, normal range 18-40%, tacrolimus 1 mg/day (FIG. 1)) was “decreased in the 2nd trimester and then obviously increased at 32 weeks gestation” and the “course of the pregnancy stable with no emergence of proteinuria, edema or hypertension until” value ([1]; tacrolimus 1 mg/day monotherapy) was 32 weeks gestation. For the same compound, the “Clinical signs of HELLP syndrome appeared at” value ([1]; tacrolimus 1 mg/day monotherapy, previous pregnancy: 20 weeks gestation) was 33 weeks gestation, the “prolonged the timing of onset of HELLP syndrome” value ([1]; tacrolimus 1 mg/day versus previous pregnancy without treatment) was “about 13 weeks gestation” and the neonatal death rate [2, 6] was 2%. The still born rate [2, 6] was 2%, the “obstetrical complications: diabetes during pregnancy” value [2, 7] was 8% and the “obstetrical complications: hypertension” value [2, 7] was 56%. For the same compound, the “obstetrical complications: infection” value [2, 7] was 22%, the “obstetrical complications: preeclampsia” value [2, 7] was 32% and the “obstetrical complications: spontaneous abortion” value [2, 7] was 26%.
